In article PMC5116089, “Sulfheme formation during homocysteine S-oxygenation by catalase in cancers and neurodegenerative diseases” (Nature Communications, 2016):
Read-outs that look alike come from different tables or passages of the source.

Key:
Bovine liver catalase = molecular target: T1, Bovine liver catalase (Bos taurus, UniProt P00432); assay: Catalase activity (H2O2 disappearance at 240 nm) as a function of thiol concentration; format: biochemical; settings: read-out: relative IC50 (CAT activity)
T1 construct: Bovine liver catalase was also purchased from Sigma-Aldrich; purchased Sigma-Aldrich; host or cells: bovine liver
T1 sequence (P00432 2-527 limits assumed): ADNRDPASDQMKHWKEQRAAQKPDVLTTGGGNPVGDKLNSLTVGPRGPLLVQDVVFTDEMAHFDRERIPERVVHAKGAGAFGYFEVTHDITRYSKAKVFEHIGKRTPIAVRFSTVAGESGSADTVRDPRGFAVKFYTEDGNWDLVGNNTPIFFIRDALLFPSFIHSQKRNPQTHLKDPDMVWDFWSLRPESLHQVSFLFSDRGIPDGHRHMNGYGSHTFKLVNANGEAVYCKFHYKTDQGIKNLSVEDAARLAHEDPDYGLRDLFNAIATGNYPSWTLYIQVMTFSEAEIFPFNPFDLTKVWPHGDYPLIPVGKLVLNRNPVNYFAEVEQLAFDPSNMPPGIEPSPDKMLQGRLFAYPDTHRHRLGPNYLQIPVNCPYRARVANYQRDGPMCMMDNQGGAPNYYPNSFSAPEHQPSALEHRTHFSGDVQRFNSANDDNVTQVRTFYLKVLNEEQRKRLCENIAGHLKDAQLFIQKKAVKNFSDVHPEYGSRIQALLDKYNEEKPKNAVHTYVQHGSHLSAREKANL
Procedure: CAT activity was measured on an Uvikon 941 spectrophotometer equipped with a temperature controlled water bath (±1 °C) by following the disappearance of H2O2 at 240 nm over 30–120 s at 25 °C. Catalase activity was calculated based on the rate of decomposition of hydrogen peroxide, which is proportional to the reduction of the absorbance at 240 nm. Experiments were carried out in a 3 ml quartz cuvette containing 11.7 mM H2O2 in 50 mM KPi, pH 7.4±1 mM DTPA and the reaction was initiated by adding 0.3–0.6 pmoles of CAT. The effect of biological thiols on the activity of CAT under physiological conditions was determined from a solution of CAT (30–60 nM) preincubated at 25 °C for at least 120 min as a function thiol concentration (0–40 mM for HCys and Cys, 0–100 mM for GSH) in 50 mM KPi, pH 7.4, 1 mM DTPA. Control experiments (biological thiols alone) were also performed in parallel. In each case, 10 μl of the reaction mixture (biological thiols±CAT) was added to the cuvette containing the H2O2 solution to initiate the reaction. Similarly, the effect of biological thiols on the activity of CAT under pathological conditions was determined from a solution of CAT (30–60 nM) containing a 2.124±0.386 molar excess of iron that was preincubated with various concentrations of thiols (0–1 mM) for at least 120 min at 25 °C in 50 mM KP at pH 7.4. The relative half inhibitory concentration (IC50) values were obtained by plotting the relative activity of CAT (A, in per cent) as a function of the concentration of thiol-compounds (RSH) and by fitting the data with the following four parameter logistic equation: A=Amin+(Amax−Amin)/(1+([RSH]/IC50)^n), where Amax is the maximal activity of CAT (constrained at 100%), Amin is the minimum activity achieved at saturating concentration of RSH and n is the Hillslope that characterizes the slope of the curve at its midpoint. The inactivation rate (kinact, min^−1) was extracted from the time course of the inactivation of CAT bioactivity using a fixed concentration of HCys. Accordingly, a solution of CAT (3.5–5 μM) was incubated with 2 mM L-HCys in 50 mM KPi, pH 7.4, 1 mM DTPA. Aliquots (10 μl) were taken at intervals (0–480 min), diluted 1:50 in 50 mM KPi, pH 7.4, 1 mM DTPA and assayed for CAT activity as described above. Similar experiments were performed in the presence of DMPO, 5,5-dimethyl-1,3-cyclohexanedione (dimedone) or SOD at a final concentration of 100 mM, 4 mM or 40 U, respectively. kinact values were obtained by plotting the relative activity of CAT (A, in per cent) as a function of the incubation time and the data were fitted with an exponential decay function: A=A0+ΔA × e^−kinact × t, with A0 and ΔA (A0+ΔA=100%) the residual activity and the percentage of CAT inhibition when t→∞, respectively. The effect of NaSH on the consumption of H2O2 in cell lysates was determined from a solution of cell lysates (0.5–3 mg ml^−1) incubated on ice with various concentrations of NaSH (0–200 μM). The disappearance of H2O2 was then followed at 240 nm for 2–5 min at 25 °C after the addition of 20–25 μl of the reaction mixture in a 3 ml cuvette containing 11.7 mM H2O2 in 50 mM KPi, pH 7.4. The relative half inhibitory concentration (IC50) values for NaSH were obtained by plotting the relative rate of disappearance of H2O2 (ΔA240 nm/min) as a function of the concentration of NaSH and by fitting the data with an hyperbolic decay equation. All the experiments were performed at least in triplicate.

[1] = system: crypt and surface epithelial cells; assay: H2O2 consumption in cell lysates as a function of NaSH concentration; format: biochemical, mice; settings: read-out: relative IC50 (rate of H2O2 consumption)
Procedure: CAT activity was measured on an Uvikon 941 spectrophotometer equipped with a temperature controlled water bath (±1 °C) by following the disappearance of H2O2 at 240 nm over 30–120 s at 25 °C. Catalase activity was calculated based on the rate of decomposition of hydrogen peroxide, which is proportional to the reduction of the absorbance at 240 nm. Experiments were carried out in a 3 ml quartz cuvette containing 11.7 mM H2O2 in 50 mM KPi, pH 7.4±1 mM DTPA and the reaction was initiated by adding 0.3–0.6 pmoles of CAT. The effect of biological thiols on the activity of CAT under physiological conditions was determined from a solution of CAT (30–60 nM) preincubated at 25 °C for at least 120 min as a function thiol concentration (0–40 mM for HCys and Cys, 0–100 mM for GSH) in 50 mM KPi, pH 7.4, 1 mM DTPA. Control experiments (biological thiols alone) were also performed in parallel. […] Similarly, the effect of biological thiols on the activity of CAT under pathological conditions was determined from a solution of CAT (30–60 nM) containing a 2.124±0.386 molar excess of iron that was preincubated with various concentrations of thiols (0–1 mM) for at least 120 min at 25 °C in 50 mM KP at pH 7.4. […] The effect of NaSH on the consumption of H2O2 in cell lysates was determined from a solution of cell lysates (0.5–3 mg ml^−1) incubated on ice with various concentrations of NaSH (0–200 μM). […]

[2] = +1 mM DTPA (physiological conditions), 50 mM phosphate buffer pH 7.4, 25 °C, n=3±s.d.
[3] = iron 55–145 nM, −DTPA (pathological conditions), 50 mM phosphate buffer pH 7.4, 25 °C, n=3±s.d.

IC50 (Bovine liver catalase; [2]) | IC50 (Bovine liver catalase; iron 55–145 nM, + 0.2 mM DTPA) | IC50 (Bovine liver catalase; iron 55–145 nM, + 1 mM DTPA) | IC50 (Bovine liver catalase; iron 55–145 nM, + DMPO) | IC50 (Bovine liver catalase; iron 55–145 nM, + SOD) | IC50 (Bovine liver catalase; [3]) | SMILES | IC50 ([1]; cells isolated from DSS-treated mice) | IC50 ([1]; cells isolated from untreated mice)
590 ± 70 µM | 69 ± 27 µM | 594 ± 67 µM | > 700 µM | 66 ± 16 µM | 3.5 ± 0.3 µM | N[C@@H](CS)C(=O)O [Cys, cysteine] | – | –
21200 ± 8500 µM | – | – | – | – | 55 ± 14 µM | N[C@@H](CCC(=O)N[C@@H](CS)C(=O)NCC(=O)O)C(=O)O [GSH, glutathione] | – | –
1440 ± 370 µM | – | – | – | – | 37 ± 3 µM | NC(CCS)C(=O)O (stereo not drawn) [HCys, homocysteine] | – | –
– | – | – | – | – | – | [Na+].[SH-] [NaSH] | 21.6 ± 6.2 µM | 25.2 ± 6.7 µM
